# Test results taken from ChEMBL document CHEMBL2021855, “Hepatitis C RNA-dependent RNA polymerase inhibitors: a review of structure-activity and resistance relationships; different scaffolds and mutations” (Bioorg Med Chem, 2012).
# pEC50, pIC50, pKi: −log10 of the molar value.
# Assays:
# [1] = Inhibition of Hepatitis C virus NS5B RNA-dependent RNA polymerase; design: species or system Hepacivirus hominis
# Hepatitis C virus [2] = assay: Antiviral activity against Hepatitis C virus assessed as inhibition of viral replication by replicon assay; assay type: functional, organism-based, Hepacivirus hominis
# Hepatitis C virus [3] = assay: Inhibition of Hepatitis C virus genotype 1b NS5B RNA-dependent RNA polymerase P495L mutant; design: species or system Hepatitis C virus subtype 1b
# Hepatitis C virus [4] = assay: Inhibition of Hepatitis C virus genotype 1b NS5B RNA-dependent RNA polymerase M423 mutant; design: species or system Hepatitis C virus subtype 1b
# Hepatitis C virus [5] = assay: Inhibition of Hepatitis C virus genotype 1b NS5B RNA-dependent RNA polymerase; design: species or system Hepatitis C virus subtype 1b
# [6] = Competitive inhibition of Hepatitis C virus NS5B RNA-dependent RNA polymerase; design: species or system Hepacivirus hominis
# Hepatitis C virus [7] = assay: Antiviral activity against Hepatitis C virus genotype 1a assessed as inhibition of viral replication by replicon assay; assay type: functional, organism-based, Hepacivirus hominis; settings: subtype 1a
# Hepatitis C virus [8] = assay: Antiviral activity against Hepatitis C virus genotype 1b assessed as inhibition of viral replication by replicon assay; assay type: functional, organism-based, Hepacivirus hominis
# Hepatitis C virus [9] = assay: Inhibition of Hepatitis C virus con1 NS5B RNA-dependent RNA polymerase; design: species or system Hepacivirus hominis
# Hepatitis C virus [10] = assay: Inhibition of Hepatitis C virus con1 NS5B RNA-dependent RNA polymerase C316Y mutant; design: species or system Hepacivirus hominis
# [11] = Inhibition of Hepatitis C virus genotype 1 NS5B RNA-dependent RNA polymerase
# Hepatitis C virus [12] = assay: Antiviral activity against Hepatitis C virus genotype 1b infected in human HuH7 cells assessed as inhibition of viral replication by replicon assay; assay type: functional, organism-based, Hepacivirus hominis; settings: Huh-7
# [13] = Cytotoxicity against human HuH7 cells; assay type: cell-based, Huh-7
# [14] = Half life in human liver microsomes
# [15] = Half life in monkey liver microsomes; settings: rhesus monkey
# Hepatitis C virus [16] = assay: Antiviral activity against Hepatitis C virus genotype 1a infected in human HuH7 cells assessed as inhibition of viral replication by replicon assay; assay type: functional, organism-based, Hepacivirus hominis; settings: subtype 1a, Huh-7
structure (smiles),measurement,setting,value
O=C(O)/C=C/c1ccc(NC(=O)C2(NC(=O)c3ccc4c(c3)nc(-c3ccoc3)n4C3CCCCC3)CCCC2)cc1,pIC50,[1],7.02
same,pEC50,Hepatitis C virus [2],7.14
CO[C@@H]1[C@H](O)[C@@H](CO)O[C@H]1n1ccc(N)nc1=O,pIC50,[1],5.92
Nc1nc(O)c2ccn([C@@H]3O[C@H](CO)C[C@H]3O)c2n1,pIC50,[1],7.10
Nc1ncnc2c1ccn2[C@@H]1O[C@H](CO)C[C@H]1O,pIC50,[1],7.10
C[C@@]1(O)[C@H](O)[C@@H](CO)O[C@H]1n1cc(F)c2c(N)ncnc21,pEC50,Hepatitis C virus [2],7.15
O=C(O)c1ccc2c(c1)nc(-c1ccc(OCc3cc(N4CCCC4=O)ccc3-c3ccc(Cl)cc3)cc1F)n2C1CCCCC1,pIC50,Hepatitis C virus [3],5.82
CO[C@@H]1[C@H](O)[C@@H](CO)O[C@H]1n1cnc2c(O)nc(N)nc21,pIC50,[1],5.42
C[C@H]1CC[C@H](C(=O)N(c2cc(-c3ccccc3)sc2C(=O)O)[C@H]2CC[C@H](O)CC2)CC1,pIC50,Hepatitis C virus [4],6.35
same,pIC50,Hepatitis C virus [5],7.77
Nc1ccn([C@@H]2O[C@H](CO)C[C@H]2O)c(=O)n1,pIC50,[1],7.10
CO[C@@H]1[C@H](O)[C@@H](CO)O[C@H]1n1ccc2c(O)nc(N)nc21,pIC50,[1],6.46
O=C(O)/C=C/c1ccc(NC(=O)CNC(=O)c2ccc3c(c2)nc(-c2ccoc2)n3C2CCCCC2)cc1,pIC50,[1],6.55
Nc1nc2c(ncn2[C@@H]2O[C@H](CO)C[C@H]2O)c(=O)[nH]1,pIC50,[1],7.10
C[C@@]1(O)[C@H](O)[C@@H](CO)O[C@H]1n1cnc2c(=O)[nH]c(N)nc21 [2'-B-METHYL-GUANOSINE],pEC50,[1],5.46
[N-]=[N+]=N[C@]1(CO)O[C@@H](n2ccc(N)nc2=O)[C@H](O)[C@@H]1O [4'-AZIDOCYTIDINE],pKi,[6],7.40
COC[C@H]1C[C@@](Cn2cccn2)(C(=O)O)N(C(=O)c2ccc(C(C)(C)C)c(OC)c2)[C@H]1c1nccs1 [GSK-625433],pEC50,Hepatitis C virus [7],6.54
same,pEC50,Hepatitis C virus [8],8.70
CNC(=O)c1c(-c2ccc(F)cc2)oc2cc(N(CCO)S(C)(=O)=O)c(C3CC3)cc12 [NESBUVIR],pEC50,Hepatitis C virus [7],8.30
same,pIC50,Hepatitis C virus [9],9.10
same,pIC50,Hepatitis C virus [10],5.67
same,pEC50,Hepatitis C virus [8],8.05
same,pIC50,[11],8.00
CS(=O)(=O)Nc1ccc2c(c1)S(=O)(=O)N=C(C1=C(O)[C@@H]3[C@H]4CC[C@H](C4)[C@@H]3N(Cc3ccc(F)cc3)C1=O)N2 [SETROBUVIR],pEC50,Hepatitis C virus [12],8.52
same,CC50,[13],100000 nM
same,half-life,[14],> 1 h
same,half-life,[15],> 1 h
same,pEC50,Hepatitis C virus [16],7.28
